Source: patent US8242109B2, “Compositions and methods relating to novel compounds and targets thereof” (priority 2007, dated 2012)
Read-outs that look alike come from different tables or passages of the source.

Key:
[1] = tested on: Ramos cells; assay: Cytotoxicity in Ramos cells; assay type: cell-based; conditions: Homo sapiens, read-out: Ramos Cell EC50
Experimental: (§1) The compounds listed in Table 4 were tested for activity against F1F0-ATPase and cytotoxicity in Ramos cells. Inhibition of ATP synthesis and hydrolysis by the F1F0-ATPase was measured as described in K. M. Johnson et al., Chemistry & Biology 2005, 12, 485-496. Cytotoxicity in Ramos cells was measured as described in K. M. Johnson et al., Chemistry & Biology 2005, 12, 485-496, or using the alamarBlue™ Assay with fluorescence detection (U.S. Pat. No. 5,501,959) as supplied and described by Invitrogen (Carlsbad, Calif.).

[2] = target: T1, F1F0-ATPase (Bos taurus, UniProt P13621); assay: Inhibition of ATP synthesis and hydrolysis by the F1F0-ATPase; assay type: biochemical
T1 construct: from tissue; host or cells: bovine sub-mitochondrial particles (SMPs)
Experimental: as §1

O=C1Nc2ccc(Cl)cc2C(c2ccc(O)cc2)=NC1Cc1ccccc1Br (stereo not shown) [Compound 33, (Z)-3-(2-bromobenzyl)-7-chloro-5-(4-hydroxyphenyl)-1H-benzo[e][1,4]diazepin-2(3H)-one]
EC50 ([1]; Ramos): < 5 µM
IC50 [2]: 5 to 10 µM

CN1C(=O)C(Cc2ccccc2Br)N=C(c2ccc3[nH]c(=O)[nH]c3c2)c2cc(Cl)ccc21 (stereo not shown) [Compound 35, (Z)-3-(2-bromobenzyl)-7-chloro-1-methyl-5-(2-oxo-2,3-dihydro-1H-benzo[d]imidazol-5-yl)-1H-benzo[e][1,4]diazepin-2(3H)-one]
EC50 ([1]; Ramos): 5 to 10 µM

CN(C)CCNC(=O)Nc1ccc(C2=NC(Cc3ccccc3Br)C(=O)Nc3ccc(Cl)cc32)cc1 (stereo not shown) [Compound 12, (Z)-1-(4-(3-(2-bromobenzyl)-7-chloro-2-oxo-2,3-dihydro-1H-benzo[e][1,4]diazepin-5-yl)phenyl)-3-(2-(dimethylamino)ethyl)urea]
EC50 ([1]; cytotoxicity in Ramos cells): < 5 µM
IC50 ([2]; read-out: ATPase IC50): 5 to 10 µM

CCc1ccc(CC2N=C(c3ccc(O)cc3)c3cc(Cl)ccc3NC2=O)cc1 (stereo not shown) [Compound 28, (Z)-7-chloro-3-(4-ethylbenzyl)-5-(4-hydroxyphenyl)-1H-benzo[e][1,4]diazepin-2(3H)-one]
EC50 ([1]; cytotoxicity in Ramos cells): 5 to 10 µM
IC50 [2]: 5 to 10 µM

CNC(=O)Nc1ccc(C2=NC(Cc3ccccc3Cl)C(=O)Nc3ccc(Cl)cc32)cc1 (stereo not shown) [Compound 5, (Z)-1-(4-(7-chloro-3-(2-chlorobenzyl)-2-oxo-2,3-dihydro-1H-benzo[e][1,4]diazepin-5-yl)phenyl)-3-methylurea]
EC50 ([1]; cytotoxicity in Ramos cells): 5 to 10 µM
IC50 [2]: 5 to 10 µM

Cc1cccc(CC2N=C(c3ccc(O)cc3)c3cc(Cl)ccc3NC2=O)c1 (stereo not shown) [Compound 19, (Z)-7-chloro-5-(4-hydroxyphenyl)-3-(3-methylbenzyl)-1H-benzo[e][1,4]diazepin-2(3H)-one]
EC50 ([1]; Ramos): 5 to 10 µM
IC50 [2]: 5 to 10 µM

CCc1cccc(CC2N=C(c3ccc(O)cc3)c3cc(Cl)ccc3N(C)C2=O)c1 (stereo not shown) [Compound 26, (Z)-7-chloro-3-(3-ethylbenzyl)-5-(4-hydroxyphenyl)-1-methyl-1H-benzo[e][1,4]diazepin-2(3H)-one]
EC50 ([1]; cytotoxicity in Ramos cells): 5 to 10 µM
IC50 [2]: 5 to 10 µM

Cc1ccc(CC2N=C(c3ccc(O)cc3)c3cc(Cl)ccc3NC2=O)cc1 (stereo not shown) [Compound 21, (Z)-7-chloro-5-(4-hydroxyphenyl)-3-(4-methylbenzyl)-1H-benzo[e][1,4]diazepin-2(3H)-one]
EC50 ([1]; Ramos): 5 to 10 µM
IC50 [2]: 5 to 10 µM

CN1C(=O)C(Cc2cccc(Br)c2)N=C(c2ccc(O)cc2)c2cc(Cl)ccc21 (stereo not shown) [Compound 37, (Z)-3-(3-bromobenzyl)-7-chloro-5-(4-hydroxyphenyl)-1-methyl-1H-benzo[e][1,4]diazepin-2(3H)-one]
EC50 ([1]; cytotoxicity in Ramos cells): 5 to 10 µM
IC50 [2]: < 5 µM

O=C(NCC(F)(F)F)Nc1ccc(C2=NC(Cc3ccccc3Cl)C(=O)Nc3ccc(Cl)cc32)cc1 (stereo not shown) [Compound 7, (Z)-1-(4-(7-chloro-3-(2-chlorobenzyl)-2-oxo-2,3-dihydro-1H-benzo[e][1,4]diazepin-5-yl)phenyl)-3-(2,2,2-trifluoroethyl)urea]
EC50 ([1]; cytotoxicity in Ramos cells): < 5 µM
IC50 ([2]; read-out: ATPase IC50): < 5 µM

CC(C)NC(=O)Nc1ccc(C2=NC(Cc3ccccc3Br)C(=O)Nc3ccc(Cl)cc32)cc1 (stereo not shown) [Compound 1, (Z)-1-(4-(3-(2-bromobenzyl)-7-chloro-2-oxo-2,3-dihydro-1H-benzo[e][1,4]diazepin-5-yl)phenyl)-3-isopropylurea]
EC50 ([1]; cytotoxicity in Ramos cells): < 5 µM
IC50 ([2]; read-out: ATPase IC50): 5 to 10 µM

Cc1ccccc1CC1N=C(c2ccc(O)cc2)c2cc(Cl)ccc2N(C)C1=O (stereo not shown) [Compound 18, (Z)-7-chloro-5-(4-hydroxyphenyl)-1-methyl-3-(2-methylbenzyl)-1H-benzo[e][1,4]diazepin-2(3H)-one]
EC50 ([1]; cytotoxicity in Ramos cells): > 10 µM
IC50 [2]: > 10 µM

CNC(=O)Nc1ccc(C2=NC(Cc3ccccc3Br)C(=O)Nc3ccc(Cl)cc32)cc1 (stereo not shown) [Compound 11, (Z)-1-(4-(3-(2-bromobenzyl)-7-chloro-2-oxo-2,3-dihydro-1H-benzo[e][1,4]diazepin-5-yl)phenyl)-3-methylurea]
EC50 ([1]; cytotoxicity in Ramos cells): < 5 µM
IC50 [2]: 5 to 10 µM

CC(C)NC(=O)Nc1ccc(C2=NC(Cc3ccccc3Cl)C(=O)Nc3ccc(Cl)cc32)cc1 (stereo not shown) [Compound 4, (Z)-1-(4-(7-chloro-3-(2-chlorobenzyl)-2-oxo-2,3-dihydro-1H-benzo[e][1,4]diazepin-5-yl)phenyl)-3-isopropylurea]
EC50 ([1]; cytotoxicity in Ramos cells): < 5 µM
IC50 ([2]; read-out: ATPase IC50): 5 to 10 µM

CN1C(=O)C(Cc2ccc(Br)cc2)N=C(c2ccc(O)cc2)c2cc(Cl)ccc21 (stereo not shown) [Compound 38, (Z)-3-(4-bromobenzyl)-7-chloro-5-(4-hydroxyphenyl)-1-methyl-1H-benzo[e][1,4]diazepin-2(3H)-one]
EC50 ([1]; cytotoxicity in Ramos cells): 5 to 10 µM
IC50 [2]: < 5 µM

CC(C)c1ccc(CC2N=C(c3ccc(O)cc3)c3cc(Cl)ccc3N(C)C2=O)cc1 (stereo not shown) [Compound 31, (Z)-7-chloro-5-(4-hydroxyphenyl)-3-(4-isopropylbenzyl)-1-methyl-1H-benzo[e][1,4]diazepin-2(3H)-one]
EC50 ([1]; cytotoxicity in Ramos cells): 5 to 10 µM
IC50 [2]: 5 to 10 µM

O=C(Nc1ccc(C2=NC(Cc3ccccc3Cl)C(=O)Nc3ccc(Cl)cc32)cc1)NC1CC1 (stereo not shown) [Compound 8, (Z)-1-(4-(7-chloro-3-(2-chlorobenzyl)-2-oxo-2,3-dihydro-1H-benzo[e][1,4]diazepin-5-yl)phenyl)-3-cyclopropylurea]
EC50 ([1]; cytotoxicity in Ramos cells): < 5 µM
IC50 ([2]; read-out: ATPase IC50): 5 to 10 µM

COCCNC(=O)Nc1ccc(C2=NC(Cc3ccccc3Br)C(=O)Nc3ccc(Cl)cc32)cc1 (stereo not shown) [Compound 15, (Z)-1-(4-(3-(2-bromobenzyl)-7-chloro-2-oxo-2,3-dihydro-1H-benzo[e][1,4]diazepin-5-yl)phenyl)-3-(2-methoxyethyl)urea]
EC50 ([1]; cytotoxicity in Ramos cells): < 5 µM
IC50 ([2]; read-out: ATPase IC50): 5 to 10 µM

Cc1ccccc1CC1N=C(c2ccc(O)cc2)c2cc(Cl)ccc2NC1=O (stereo not shown) [Compound 17, (Z)-7-chloro-5-(4-hydroxyphenyl)-3-(2-methylbenzyl)-1H-benzo[e][1,4]diazepin-2(3H)-one]
EC50 ([1]; Ramos): 5 to 10 µM
IC50 [2]: 5 to 10 µM

CN(C)CCNC(=O)Nc1ccc(C2=NC(Cc3ccccc3Cl)C(=O)Nc3ccc(Cl)cc32)cc1 (stereo not shown) [Compound 6, (Z)-1-(4-(7-chloro-3-(2-chlorobenzyl)-2-oxo-2,3-dihydro-1H-benzo[e][1,4]diazepin-5-yl)phenyl)-3-(2-(dimethylamino)ethyl)urea]
EC50 ([1]; cytotoxicity in Ramos cells): < 5 µM
IC50 ([2]; read-out: ATPase IC50): > 10 µM

CC(C)NC(=O)Nc1ccc(C2=NC(Cc3ccccc3F)C(=O)Nc3ccc(Cl)cc32)cc1 (stereo not shown) [Compound 3, (Z)-1-(4-(7-chloro-3-(2-fluorobenzyl)-2-oxo-2,3-dihydro-1H-benzo[e][1,4]diazepin-5-yl)phenyl)-3-isopropylurea]
EC50 ([1]; cytotoxicity in Ramos cells): 5 to 10 µM
IC50 ([2]; read-out: ATPase IC50): 5 to 10 µM

CCc1ccccc1CC1N=C(c2ccc(O)cc2)c2cc(Cl)ccc2NC1=O (stereo not shown) [Compound 23, (Z)-7-chloro-3-(2-ethylbenzyl)-5-(4-hydroxyphenyl)-1H-benzo[e][1,4]diazepin-2(3H)-one]
EC50 ([1]; cytotoxicity in Ramos cells): 5 to 10 µM
IC50 [2]: 5 to 10 µM

CC(C)c1ccc(CC2N=C(c3ccc(O)cc3)c3cc(Cl)ccc3NC2=O)cc1 (stereo not shown) [Compound 30, (Z)-7-chloro-5-(4-hydroxyphenyl)-3-(4-isopropylbenzyl)-1H-benzo[e][1,4]diazepin-2(3H)-one]
EC50 ([1]; cytotoxicity in Ramos cells): 5 to 10 µM
IC50 [2]: 5 to 10 µM

COCCNC(=O)Nc1ccc(C2=NC(Cc3ccccc3Cl)C(=O)Nc3ccc(Cl)cc32)cc1 (stereo not shown) [Compound 9, (Z)-1-(4-(7-chloro-3-(2-chlorobenzyl)-2-oxo-2,3-dihydro-1H-benzo[e][1,4]diazepin-5-yl)phenyl)-3-(2-methoxyethyl)urea]
EC50 ([1]; cytotoxicity in Ramos cells): < 5 µM
IC50 ([2]; read-out: ATPase IC50): 5 to 10 µM

CN1C(=O)C(Cc2cccc(Cl)c2)N=C(c2ccc(O)cc2)c2cc(Cl)ccc21 (stereo not shown) [Compound 39, (Z)-7-chloro-3-(3-chlorobenzyl)-5-(4-hydroxyphenyl)-1-methyl-1H-benzo[e][1,4]diazepin-2(3H)-one]
EC50 ([1]; cytotoxicity in Ramos cells): > 10 µM
IC50 [2]: > 10 µM

O=C1Nc2ccc(Cl)cc2C(c2ccc(O)cc2)=NC1Cc1ccccc1Cl (stereo not shown) [Compound 40, (Z)-7-chloro-3-(2-chlorobenzyl)-5-(4-hydroxyphenyl)-1H-benzo[e][1,4]diazepin-2(3H)-onc]
EC50 ([1]; Ramos): 5 to 10 µM
IC50 [2]: < 5 µM

CCc1cccc(CC2N=C(c3ccc(O)cc3)c3cc(Cl)ccc3NC2=O)c1 (stereo not shown) [Compound 25, (Z)-7-chloro-3-(3-ethylbenzyl)-5-(4-hydroxyphenyl)-1H-benzo[e][1,4]diazepin-2(3H)-one]
EC50 ([1]; cytotoxicity in Ramos cells): 5 to 10 µM
IC50 [2]: 5 to 10 µM

CC(C)c1cccc(CC2N=C(c3ccc(O)cc3)c3cc(Cl)ccc3N(C)C2=O)c1 (stereo not shown) [Compound 29, (Z)-7-chloro-5-(4-hydroxyphenyl)-3-(3-isopropylbenzyl)-1-methyl-1H-benzo[e][1,4]diazepin-2(3H)-one]
EC50 ([1]; cytotoxicity in Ramos cells): 5 to 10 µM
IC50 [2]: 5 to 10 µM

Cc1ccc(CC2N=C(c3ccc(O)cc3)c3cc(Cl)ccc3N(C)C2=O)cc1 (stereo not shown) [Compound 22, (Z)-7-chloro-5-(4-hydroxyphenyl)-1-methyl-3-(4-methylbenzyl)-1H-benzo[e][1,4]diazepin-2(3H)-one]
EC50 ([1]; cytotoxicity in Ramos cells): > 10 µM
IC50 [2]: > 10 µM

CCc1ccccc1CC1N=C(c2ccc(O)cc2)c2cc(Cl)ccc2N(C)C1=O (stereo not shown) [Compound 24, (Z)-7-chloro-3-(2-ethylbenzyl)-5-(4-hydroxyphenyl)-1-methyl-1H-benzo[e][1,4]diazepin-2(3H)-one]
EC50 ([1]; cytotoxicity in Ramos cells): > 10 µM
IC50 [2]: 5 to 10 µM

O=C(Nc1ccc(C2=NC(Cc3ccccc3Br)C(=O)Nc3ccc(Cl)cc32)cc1)NC1CC1 (stereo not shown) [Compound 14, (Z)-1-(4-(3-(2-bromobenzyl)-7-chloro-2-oxo-2,3-dihydro-1H-benzo[e][1,4]diazepin-5-yl)phenyl)-3-cyclopropylurea]
EC50 ([1]; cytotoxicity in Ramos cells): < 5 µM
IC50 ([2]; read-out: ATPase IC50): 5 to 10 µM
